# From paper PMC6174881 (Journal of medicinal chemistry, 2018)
# “And” between values parts separate entries of the source, which are not always exact repeats. Equal entries are not always repeated. Where two headings read alike, the source gives them in different places. Square brackets hold non-standard residues; d marks the D form. Peptide text beside a SMILES is read from it. hPhe = N[C@@H](CCc1ccccc1)C(=O)O; Nle = CCCC[C@H](N)C(=O)O; Dap = NC[C@H](N)C(=O)O
# Experiments:
# [1] = target: T1, mMC3R (Mus musculus, UniProt P33033); conditions: for Antagonist mMC3R pA2: Schild analysis with agonist NDP-MSH, pA2 = −log[Ki]
# T1 sequence (P33033 whole entry): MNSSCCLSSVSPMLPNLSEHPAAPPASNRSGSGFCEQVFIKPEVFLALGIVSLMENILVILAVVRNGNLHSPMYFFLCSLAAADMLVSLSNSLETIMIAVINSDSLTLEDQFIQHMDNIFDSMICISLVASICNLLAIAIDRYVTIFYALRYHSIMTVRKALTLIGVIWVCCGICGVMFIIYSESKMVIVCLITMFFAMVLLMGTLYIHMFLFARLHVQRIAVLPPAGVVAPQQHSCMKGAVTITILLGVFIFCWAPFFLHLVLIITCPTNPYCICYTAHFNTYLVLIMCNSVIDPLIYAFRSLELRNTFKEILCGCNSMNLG
# [2] = target: mMC5R (Mus musculus, UniProt P41149); experiment: AlphaScreen cAMP assay, agonist/inverse agonist activity at mMC5R; conditions: for mMC5R activity in words: up to 100 μM; for mMC5R inverse agonist efficacy (−X%): relative to basal, apparent sigmoidal dose-response
# Sequence of mMC5R (P41149 whole entry): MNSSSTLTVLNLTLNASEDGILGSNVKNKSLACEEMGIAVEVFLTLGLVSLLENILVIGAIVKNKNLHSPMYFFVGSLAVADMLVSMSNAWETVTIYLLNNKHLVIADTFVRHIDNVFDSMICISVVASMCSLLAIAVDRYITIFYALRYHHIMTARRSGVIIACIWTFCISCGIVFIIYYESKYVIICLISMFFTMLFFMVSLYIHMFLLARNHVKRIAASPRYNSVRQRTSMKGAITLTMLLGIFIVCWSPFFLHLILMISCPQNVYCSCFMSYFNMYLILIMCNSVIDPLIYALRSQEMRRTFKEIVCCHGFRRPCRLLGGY
# [3] = target: T2, mMC4R (Mus musculus, UniProt P56450); conditions: for selectivity for the mMC4R over the mMC3R: calculated using antagonist Ki values; for fold increase in potency at the mMC4R compared to 1: calculated using Ki values from Schild analysis
# T2 sequence (P56450 whole entry): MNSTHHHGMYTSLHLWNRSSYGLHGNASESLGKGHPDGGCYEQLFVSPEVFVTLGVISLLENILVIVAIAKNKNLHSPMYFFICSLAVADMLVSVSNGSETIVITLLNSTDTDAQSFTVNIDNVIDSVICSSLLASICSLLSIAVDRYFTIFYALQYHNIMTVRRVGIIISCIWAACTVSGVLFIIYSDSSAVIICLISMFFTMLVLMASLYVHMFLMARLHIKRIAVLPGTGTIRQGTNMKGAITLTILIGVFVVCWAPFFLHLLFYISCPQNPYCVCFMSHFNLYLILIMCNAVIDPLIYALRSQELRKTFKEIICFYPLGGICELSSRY
# [4] = target: T3, mMC1R (Mus musculus, UniProt Q01727); conditions: for mMC1R agonist activity in words: up to 100 μM
# T3 sequence (Q01727 whole entry): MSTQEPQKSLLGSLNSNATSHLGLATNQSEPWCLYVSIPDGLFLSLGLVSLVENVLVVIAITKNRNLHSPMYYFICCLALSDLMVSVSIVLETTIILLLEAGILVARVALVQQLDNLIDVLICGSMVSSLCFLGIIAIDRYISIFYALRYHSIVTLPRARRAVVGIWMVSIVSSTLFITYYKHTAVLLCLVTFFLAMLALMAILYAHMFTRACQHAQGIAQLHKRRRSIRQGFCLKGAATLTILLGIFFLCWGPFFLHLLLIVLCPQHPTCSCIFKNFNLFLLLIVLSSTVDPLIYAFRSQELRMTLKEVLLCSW
# [5] = target: T3, mMC1R; experiment: cell-based
# [6] = target: mouse melanocortin-1 receptor (mouse) (UniProt Q01727)
# Sequence of mouse melanocortin-1 receptor (mouse) (Q01727 whole entry): as above
# [7] = target: T1, mMC3R
# [8] = target: T2, mMC4R; conditions: β-galactosidase reporter gene assay; cited from earlier work
# [9] = target: T1, mMC3R; conditions: β-galactosidase reporter gene assay; cited from earlier work
# [10] = calculated using Ki values from Schild analysis
# [11] = maximal stimulation relative to NDP-MSH, sigmoidal dose-response
molecule,measurement,setting,value
"N=C(N)NCCC[C@@H]1NC(=O)[C@H](CCc2ccccc2)NC(=O)[C@H](Cc2ccccc2)NC(=O)[C@H](CCCNC(=N)N)NC(=O)[C@@H]2CCCN2C(=O)[C@H]2CCCN2C(=O)[C@H](Cc2ccccc2)NC(=O)[C@H](CO)NC1=O [Compound 23, c[Pro-Arg-Phe-hPhe-Arg-Ser-Phe-DPro]] (cyclo(RF[hPhe]RSF[dP]P))",fold increase in potency at the mMC3R compared to 1,[1]; [10],greater than 10 fold
"CCCC[C@@H]1NC(=O)[C@H](CO)NC(=O)[C@H](CC(N)=O)NC(=O)[C@H](CCc2ccccc2)NC(=O)[C@H](Cc2ccccc2)NC(=O)[C@H](CCCNC(=N)N)NC(=O)[C@@H]2CCCN2C(=O)[C@H]2CCCN2C1=O [Compound 16, c[Pro-Arg-Phe-hPhe-Asn-Ser-Nle-DPro]] (cyclo(RF[hPhe]NS[Nle][dP]P))",mMC5R activity in words,[2],did not result in mMC5R stimulation
same,fold more potent than AGRP at the mMC4R,[3],3–6 fold
same,Antagonist mMC4R pA2,"[3]; Schild analysis with agonist NDP-MSH, pA2 = −log[Ki]",9.23
same,selectivity for the mMC4R over the mMC3R,[3],600–800 fold and 800 fold
same,Antagonist mMC3R pA2,[1],6.33
"C[C@@H]1NC(=O)[C@H](CN)NC(=O)[C@H](Cc2ccccc2)NC(=O)[C@H](Cc2ccccc2)NC(=O)[C@H](CCCNC(=N)N)NC(=O)[C@@H]2CCCN2C(=O)[C@H]2CCCN2C(=O)[C@H](Cc2ccccc2)NC1=O [Compound 5, c[Pro-Arg-Phe-Phe-Dap-Ala-Phe-DPro]]",EC50,[2],> 100 µM
same,Kb,[1],0.0631 µM
same,"mMC1R partial agonist activity (X%), receptor stimulated to given percent",[4]; [11],80%
same,EC50,[5],1.6 ± 0.4 µM
"CCCC[C@@H]1NC(=O)[C@H](CO)NC(=O)[C@H](CN)NC(=O)[C@H](Cc2ccccc2)NC(=O)[C@H](Cc2ccccc2)NC(=O)[C@H](CCCNC(=N)N)NC(=O)[C@@H]2CCCN2C(=O)[C@H]2CCCN2C1=O [Compound 8, c[Pro-Arg-Phe-Phe-Dap-Ser-Nle-DPro]] (cyclo(RFF[Dap]S[Nle][dP]P))",fold increase in potency at the mMC4R compared to 1,[3],≥ 10 fold
"CCCC[C@@H]1NC(=O)[C@H](CO)NC(=O)[C@H](CN)NC(=O)[C@H](CCc2ccccc2)NC(=O)[C@H](Cc2ccccc2)NC(=O)[C@H](CCCNC(=N)N)NC(=O)[C@@H]2CCCN2C(=O)[C@H]2CCCN2C1=O [Compound 20, c[Pro-Arg-Phe-hPhe-Dap-Ser-Nle-DPro]] (cyclo(RF[hPhe][Dap]S[Nle][dP]P))",mMC5R activity in words,[2],did not result in mMC5R stimulation
same,fold more potent than AGRP at the mMC4R,[3],3–6 fold
same,fold increase in potency at the mMC4R compared to 1,[3],25 fold
same,selectivity for the mMC4R over the mMC3R,[3],600–800 fold and 600 fold
"CCCC[C@@H]1NC(=O)[C@H](C)NC(=O)[C@H](CN)NC(=O)[C@H](CCc2ccccc2)NC(=O)[C@H](Cc2ccccc2)NC(=O)[C@H](CCCNC(=N)N)NC(=O)[C@@H]2CCCN2C(=O)[C@H]2CCCN2C1=O [Compound 18, c[Pro-Arg-Phe-hPhe-Dap-Ala-Nle-DPro]] (cyclo(RF[hPhe][Dap]A[Nle][dP]P))",mMC1R agonist activity in words,[4],did not possess agonist activity
"CCCC[C@@H]1NC(=O)[C@H](CO)NC(=O)[C@H](CC(N)=O)NC(=O)[C@H](Cc2ccccc2)NC(=O)[C@H](Cc2ccccc2)NC(=O)[C@H](CCCNC(=N)N)NC(=O)[C@@H]2CCCN2C(=O)[C@H]2CCCN2C1=O [Compound 4, c[Pro-Arg-Phe-Phe-Asn-Ser-Nle-DPro]] (cyclo(RFFNS[Nle][dP]P))",mMC5R inverse agonist efficacy −X% @ 100 μM,"[2]; at 100 μM relative to basal, no sigmoidal dose-response",−35% @ 100μM
same,mMC5R activity in words,[2],inverse agonist activity was observed
same,fold increase in potency at the mMC4R compared to 1,[3],≤ 10 fold
"CCCC[C@@H]1NC(=O)[C@H](C)NC(=O)[C@H](CC(N)=O)NC(=O)[C@H](CCc2ccccc2)NC(=O)[C@H](Cc2ccccc2)NC(=O)[C@H](CCCNC(=N)N)NC(=O)[C@@H]2CCCN2C(=O)[C@H]2CCCN2C1=O [Compound 14, c[Pro-Arg-Phe-hPhe-Asn-Ala-Nle-DPro]]",mMC1R agonist activity in words,[4],did not possess agonist activity
"CCCC[C@@H]1NC(=O)[C@H](CO)NC(=O)[C@H](CCCNC(=N)N)NC(=O)[C@H](Cc2ccccc2)NC(=O)[C@H](Cc2ccccc2)NC(=O)[C@H](CCCNC(=N)N)NC(=O)[C@@H]2CCCN2C(=O)[C@H]2CCCN2C1=O [Compound 12, c[Pro-Arg-Phe-Phe-Arg-Ser-Nle-DPro]] (cyclo(RFFRS[Nle][dP]P))",fold increase in potency at the mMC4R compared to 1,[3],≥ 10 fold
"CCCC[C@@H]1NC(=O)[C@H](C)NC(=O)[C@H](CCCNC(=N)N)NC(=O)[C@H](Cc2ccccc2)NC(=O)[C@H](Cc2ccccc2)NC(=O)[C@H](CCCNC(=N)N)NC(=O)[C@@H]2CCCN2C(=O)[C@H]2CCCN2C1=O [Compound 10, c[Pro-Arg-Phe-Phe-Arg-Ala-Nle-DPro]] (cyclo(RFFRA[Nle][dP]P))",fold increase in potency at the mMC4R compared to 1,[3],≥ 10 fold
same,fold increase in potency at the mMC3R compared to 1,[1]; [10],greater than 10 fold
cyclo(PRF[hPhe]RS[Nle][dP]),"agonist EC50, cAMP (AlphaScreen), HEK293 cells stably expressing mMC1R",[6],0.4 µM
"CCCC[C@@H]1NC(=O)[C@H](C)NC(=O)[C@H](CCCNC(=N)N)NC(=O)[C@H](CCc2ccccc2)NC(=O)[C@H](Cc2ccccc2)NC(=O)[C@H](CCCNC(=N)N)NC(=O)[C@@H]2CCCN2C(=O)[C@H]2CCCN2C1=O [Compound 22, c[Pro-Arg-Phe-hPhe-Arg-Ala-Nle-DPro]] (cyclo(RF[hPhe]RA[Nle][dP]P))",fold increase in potency at the mMC3R compared to 1,[1]; [10],greater than 10 fold
same,mMC1R agonist activity in words,[4],did not possess agonist activity
"N=C(N)NCCC[C@@H]1NC(=O)[C@@H]2CCCN2C(=O)[C@H]2CCCN2C(=O)[C@H](Cc2ccccc2)NC(=O)[C@H](CO)NC(=O)[C@H](CC(N)=O)NC(=O)[C@H](Cc2ccccc2)NC(=O)[C@H](Cc2ccccc2)NC1=O [Compound 3, c[Pro-Arg-Phe-Phe-Asn-Ser-Phe-DPro]] (cyclo(RFFNSF[dP]P))",EC50,[2],0.006 ± 0.003 µM
same,mMC5R inverse agonist efficacy (−X%),[2],−14%
same,mMC5R activity in words,[2],inverse agonist activity was observed
same,Kb,[3],0.00794 µM
same,fold increase in potency at the mMC4R compared to 1,[3],≤ 10 fold
same,Kb,[1],0.794 µM
same,EC50,[5],1.2 ± 0.3 µM
"C[C@@H]1NC(=O)[C@H](CCCNC(=N)N)NC(=O)[C@H](Cc2ccccc2)NC(=O)[C@H](Cc2ccccc2)NC(=O)[C@H](CCCNC(=N)N)NC(=O)[C@@H]2CCCN2C(=O)[C@H]2CCCN2C(=O)[C@H](Cc2ccccc2)NC1=O [Compound 9, c[Pro-Arg-Phe-Phe-Arg-Ala-Phe-DPro]] (cyclo(RFFRAF[dP]P))",EC50,[2],> 100 µM
same,Kb,[3],0.002 µM
same,Kb,[1],0.0398 µM
same,fold increase in potency at the mMC3R compared to 1,[1]; [10],greater than 10 fold
same,"mMC1R partial agonist activity (X%), receptor stimulated to given percent",[4],25%
same,EC50,[5],0.6 ± 0.2 µM
"CCCC[C@@H]1NC(=O)[C@H](CO)NC(=O)[C@H](CCCNC(=N)N)NC(=O)[C@H](CCc2ccccc2)NC(=O)[C@H](Cc2ccccc2)NC(=O)[C@H](CCCNC(=N)N)NC(=O)[C@@H]2CCCN2C(=O)[C@H]2CCCN2C1=O [Compound 24, c[Pro-Arg-Phe-hPhe-Arg-Ser-Nle-DPro]] (cyclo(RF[hPhe]RS[Nle][dP]P))",fold increase in potency at the mMC3R compared to 1,[1]; [10],greater than 10 fold
same,"mMC1R partial agonist activity (X%), receptor stimulated to given percent",[4],25%
"CCCC[C@@H]1NC(=O)[C@H](C)NC(=O)[C@H](CC(N)=O)NC(=O)[C@H](Cc2ccccc2)NC(=O)[C@H](Cc2ccccc2)NC(=O)[C@H](CCCNC(=N)N)NC(=O)[C@@H]2CCCN2C(=O)[C@H]2CCCN2C1=O [Compound 2, c[Pro-Arg-Phe-Phe-Asn-Ala-Nle-DPro]]",EC50,[2],0.01 ± 0.006 µM
same,mMC5R inverse agonist efficacy (−X%),[2],−20%
same,mMC5R activity in words,[2],inverse agonist activity was observed
same,Kb,[3],0.00126 µM
same,fold increase in potency at the mMC4R compared to 1,[3],≤ 10 fold
same,Kb,[1],0.251 µM
same,"mMC1R partial agonist activity (X%), receptor stimulated to given percent",[4]; [11],50%
same,EC50,[5],1.7 ± 0.3 µM
"C[C@@H]1NC(=O)[C@H](CC(N)=O)NC(=O)[C@H](CCc2ccccc2)NC(=O)[C@H](Cc2ccccc2)NC(=O)[C@H](CCCNC(=N)N)NC(=O)[C@@H]2CCCN2C(=O)[C@H]2CCCN2C(=O)[C@H](Cc2ccccc2)NC1=O [Compound 13, c[Pro-Arg-Phe-hPhe-Asn-Ala-Phe-DPro]]",EC50,[2],> 100 µM
same,Antagonist mMC3R pA2,[7],5.6±0.2
same,fold less potent than 1 at the mMC4R,[8],5 fold
same,Kb,[3],0.00501 µM
same,mMC4R potency compared to lead peptide 1 in words,[3],equipotent to the lead peptide
same,selectivity for the mMC4R over the mMC3R,[3],approximately 500 fold
same,Kb,[1],2.51 µM
same,Antagonist mMC3R pA2,[1],5.6
same,fold reduced potency at the mMC3R compared to 1,[1]; [10],5 fold
same,mMC3R antagonist activity in words,[9],did not possess antagonist activity
